Values after ≈ are worked out from the molar mass of the structure shown. Read-outs that look alike come from different tables or passages of the source. Where a SMILES comes first, the peptide text is derived from it. Where no end group is shown, it is not given here. The star is where a group is joined. Oleoyl = CCCCCCCC/C=C\CCCCCCCC(=O)*; Myristoyl = CCCCCCCCCCCCCC(=O)*; Undecanoyl = CCCCCCCCCCC(=O)*; Nonanoyl = CCCCCCCCC(=O)*
Assays:
Format in all cases: cell-based
[1] = system: Salmonella typhimurium 14028S; test: MIC, broth microdilution, S. typhimurium; parameters: unit not given here; conditions: for Anti-microbial activity (MIC): S. typhimurium 14028S; for MIC, lipid length SAR: S.typhimurium
Protocol: (§1) MICs (minimal inhibitory concentrations) were determined for the hexapeptides of interest using a slightly modified version of the NCCLS (National Committee for Clinical Laboratory Standards) broth microdilution method as described previously (Steinberg et al., AAC 41: 1738, 1997). Briefly, antimicrobial agents were prepared as 10× concentrates in the most appropriate solvent. For the hexapeptide, 0.01% acetic acid containing 0.2% bovine serum albumin as a carrier protein was used. Inocula were prepared by resuspending colonies from a BAP (please spell out this term) in medium and adjusting the suspension to match that of a 0.5 McFarland standard. The suspension was diluted into fresh medium (as recommended by NCCLS for the organism) to give 2×10^5 to 7×10^5 CFU/ml for bacteria or 2×10^3 to 7×10^3 CFU/ml for Candida. After dispensing 100 μl aliquots of the microbial suspension into each well of a 96-well polypropylene microtiter plate, 11 μl of test compound was added. The MIC was defined as the lowest concentration of drug which prevented visible turbidity after 16 to 20 hours (bacteria) or 46 to 50 hours (Candida) at 35° C.

Escherichia coli UB1005 = test: MIC, broth microdilution, E. coli; parameters: unit not given here
Protocol: as §1

Candida albicans = system: Candida albicans
Protocol: as §1

Pseudomonas aeruginosa = system: Pseudomonas aeruginosa; parameters: MIC, lipid length SAR: unit not given here; conditions: for MIC, lipid length SAR: P.aeruginosa
Protocol: as §1

[2] = T.W. Candida #184, azole resistant clinical isolate
[3] = T.W. Candida #185 (CDR1,2), azole resistant clinical isolate
[4] = T.W. Candida #186 (CDR1,2), azole resistant clinical isolate
[5] = T.W. Candida #187 (CDR1,2), azole resistant clinical isolate
[6] = T.W. Candida #192 (CDR1,2), azole resistant clinical isolate
[7] = T.W. Candida #193, azole resistant clinical isolate
[8] = T.W. Candida #194, azole resistant clinical isolate
[9] = T.W. Candida #195, azole resistant clinical isolate
[10] = T.W. Candida #196 (CDR1,2), azole resistant clinical isolate
[11] = T.W. Candida #197, azole resistant clinical isolate
[12] = T.W. Candida #198, azole resistant clinical isolate
[13] = T.W. Candida #199 (CDR1,2), azole resistant clinical isolate

Question: How did the “Anti-microbial activity (MIC)” value [1] turn out when KWKVFK-NH2 [SEQ ID NO: 24] was run?
Answer: >128

Question: And the “Anti-microbial activity (MIC)” value (Escherichia coli UB1005)?
Answer: >128

Question: With KFKSFK-NH2 [SEQ ID NO: 21] as the molecule, how does the “Anti-microbial activity (MIC)” value [1] read?
Answer: >128

Question: What about the “Anti-microbial activity (MIC)” value (Escherichia coli UB1005) of the same molecule?
Answer: >128

Question: FALKKL-NH2 [SEQ ID NO: 14] was tested. Which “Anti-microbial activity (MIC)” value [1] did it give?
Answer: >128

Question: And the “Anti-microbial activity (MIC)” value (Escherichia coli UB1005)?
Answer: >128

Question: Which results are given for `CC(=O)N1CCN(c2ccc(OCC3COC(Cn4ccnc4)(c4ccc(Cl)cc4Cl)O3)cc2)CC1` (centres unmarked) [Ketoconazole, reference compound]?
Answer: MIC (Candida albicans; [2]): 64 µg/mL (≈ 120 µM); MIC (Candida albicans; [3]): 8 µg/mL (≈ 15.1 µM); MIC (Candida albicans; [4]): 8 µg/mL (≈ 15.1 µM); MIC (Candida albicans; [5]): 16 µg/mL (≈ 30.1 µM); MIC (Candida albicans; [6]): 32 µg/mL (≈ 60.2 µM); MIC (Candida albicans; [7]): 8 µg/mL (≈ 15.1 µM); MIC (Candida albicans; [8]): 16 µg/mL (≈ 30.1 µM); MIC (Candida albicans; [9]): 128 µg/mL (≈ 241 µM); MIC (Candida albicans; [10]): 32 µg/mL (≈ 60.2 µM); MIC (Candida albicans; [11]): > 256 µg/mL; MIC (Candida albicans; [12]): 1 µg/mL (≈ 1.88 µM); MIC (Candida albicans; [13]): 16 µg/mL (≈ 30.1 µM)

Question: What does the source list for “Non-KFKWPW-NH2 (Nonanoyl-KFKWPW-NH2; SMILES CCCCCCCCC(=O)N[C@@H](CCCCN)C(=O)N[C@@H](Cc1ccccc1)C(=O)N[C@@H](CCCCN)C(=O)N[C@@H](Cc1c[nH]c2ccccc12)C(=O)N1CCC[C@H]1C(=O)N[C@@H](Cc1c[nH]c2ccccc12)C(N)=O) [SEQ ID NO: 70]”?
Answer: MIC, lipid length SAR (Pseudomonas aeruginosa): 32-64; MIC, lipid length SAR [1]: 16

Question: How did the “MIC, lipid length SAR” value (Pseudomonas aeruginosa) turn out when “Myr-KFKWPW-NH2 (Myristoyl-KFKWPW-NH2; SMILES CCCCCCCCCCCCCC(=O)N[C@@H](CCCCN)C(=O)N[C@@H](Cc1ccccc1)C(=O)N[C@@H](CCCCN)C(=O)N[C@@H](Cc1c[nH]c2ccccc12)C(=O)N1CCC[C@H]1C(=O)N[C@@H](Cc1c[nH]c2ccccc12)C(N)=O) [SEQ ID NO: 77]” was run?
Answer: 64-128

Question: What about the “MIC, lipid length SAR” value [1] of the same molecule?
Answer: >128

Question: Which “Anti-microbial activity (MIC)” value [1] does the source give for FKLAPW-NH2 [SEQ ID NO: 16] here?
Answer: >128

Question: What about the “Anti-microbial activity (MIC)” value (Escherichia coli UB1005) of the same molecule?
Answer: >128

Question: H-RWRWPW-NH2 [compound 4] was tested. Which “Minimal Inhibitory Concentrations (Mics)” value (Candida albicans) did it give?
Answer: 64-128 Mg/Ml

Question: What does the source list for KFVWPW-NH2 [SEQ ID NO: 32]?
Answer: Anti-microbial activity (MIC) [1]: >128; Anti-microbial activity (MIC) (Escherichia coli UB1005): >128

Question: KPVKFK-NH2 [SEQ ID NO: 31] was tested. Which “Anti-microbial activity (MIC)” value [1] did it give?
Answer: >128

Question: What about the “Anti-microbial activity (MIC)” value (Escherichia coli UB1005) of the same molecule?
Answer: >128

Question: What does the source list for KFFWPF-NH2 [SEQ ID NO: 36]?
Answer: Anti-microbial activity (MIC) [1]: >128; Anti-microbial activity (MIC) (Escherichia coli UB1005): >128

Question: How did the “MIC, lipid length SAR” value (Pseudomonas aeruginosa) turn out when “OIe-KFKWPW-NH2 (Oleoyl-KFKWPW-NH2; SMILES CCCCCCCC/C=C\CCCCCCCC(=O)N[C@@H](CCCCN)C(=O)N[C@@H](Cc1ccccc1)C(=O)N[C@@H](CCCCN)C(=O)N[C@@H](Cc1c[nH]c2ccccc12)C(=O)N1CCC[C@H]1C(=O)N[C@@H](Cc1c[nH]c2ccccc12)C(N)=O) [SEQ ID NO: 75]” was run?
Answer: >128

Question: What about the “MIC, lipid length SAR” value [1] of the same molecule?
Answer: >128

Question: With FPWKFK-NH2 [SEQ ID NO: 34] as the molecule, how does the “Anti-microbial activity (MIC)” value [1] read?
Answer: >128

Question: What about the “Anti-microbial activity (MIC)” value (Escherichia coli UB1005) of the same molecule?
Answer: >128

Question: For `CCCCCCCCCCC(=O)N[C@@H](CCCCN)C(=O)N[C@@H](Cc1ccccc1)C(=O)N[C@@H](CCCCN)C(=O)N[C@@H](Cc1c[nH]c2ccccc12)C(=O)N1CCC[C@H]1C(=O)N[C@@H](Cc1c[nH]c2ccccc12)C(N)=O` [compound 79] (Undecanoyl-KFKWPW-NH2), which “Minimal Inhibitory Concentrations (Mics)” value (Candida albicans) is on record?
Answer: 4-8 Mg/Ml

Question: And the “Minimal Inhibitory Concentrations (Mics)” value (Pseudomonas aeruginosa)?
Answer: 8-16 Mg/Ml

Question: What does the source list for KPVWPF-NH2 [SEQ ID NO: 35]?
Answer: Anti-microbial activity (MIC) [1]: >128; Anti-microbial activity (MIC) (Escherichia coli UB1005): >128

Question: What does the source list for `Clc1ccc(COC(Cn2ccnc2)c2ccc(Cl)cc2Cl)c(Cl)c1` (centres unmarked) [Miconazole, reference compound]?
Answer: MIC (Candida albicans; [2]): > 256 µg/mL; MIC (Candida albicans; [3]): > 256 µg/mL; MIC (Candida albicans; [4]): > 256 µg/mL; MIC (Candida albicans; [5]): > 256 µg/mL; MIC (Candida albicans; [6]): > 256 µg/mL; MIC (Candida albicans; [7]): > 256 µg/mL; MIC (Candida albicans; [8]): > 256 µg/mL; MIC (Candida albicans; [9]): > 256 µg/mL; MIC (Candida albicans; [10]): 128 µg/mL (≈ 308 µM); MIC (Candida albicans; [11]): > 256 µg/mL; MIC (Candida albicans; [12]): 128 µg/mL (≈ 308 µM); MIC (Candida albicans; [13]): > 256 µg/mL

Question: With `CCCCCCCCC(=O)N[C@@H](CCCCN)C(=O)N[C@@H](Cc1ccccc1)C(=O)N[C@@H](CCCCN)C(=O)N[C@@H](Cc1c[nH]c2ccccc12)C(=O)N1CCC[C@H]1C(=O)N[C@@H](Cc1c[nH]c2ccccc12)C(N)=O` [compound 70] (Nonanoyl-KFKWPW-NH2) as the molecule, how does the “Minimal Inhibitory Concentrations (Mics)” value (Pseudomonas aeruginosa) read?
Answer: 32-64 Mg/Ml

Question: With VAKLAK-NH2 [SEQ ID NO: 19] as the molecule, how does the “Anti-microbial activity (MIC)” value [1] read?
Answer: >128

Question: What about the “Anti-microbial activity (MIC)” value (Escherichia coli UB1005) of the same molecule?
Answer: >128

Question: Which “Anti-microbial activity (MIC)” value [1] does the source give for FRHFRW-NH2 [SEQ ID NO: 18] here?
Answer: >128

Question: And the “Anti-microbial activity (MIC)” value (Escherichia coli UB1005)?
Answer: >128

— patent US7407940B2, “Antimicrobial hexapeptides” (Helix BioMedix Inc., priority 2005, dated 2008)
